Data set [1] deals with T1, MAO-A enzyme (Homo sapiens, UniProt P21397).
T1 construct: purchased Sigma-Aldrich
T1 sequence (P21397 1-527): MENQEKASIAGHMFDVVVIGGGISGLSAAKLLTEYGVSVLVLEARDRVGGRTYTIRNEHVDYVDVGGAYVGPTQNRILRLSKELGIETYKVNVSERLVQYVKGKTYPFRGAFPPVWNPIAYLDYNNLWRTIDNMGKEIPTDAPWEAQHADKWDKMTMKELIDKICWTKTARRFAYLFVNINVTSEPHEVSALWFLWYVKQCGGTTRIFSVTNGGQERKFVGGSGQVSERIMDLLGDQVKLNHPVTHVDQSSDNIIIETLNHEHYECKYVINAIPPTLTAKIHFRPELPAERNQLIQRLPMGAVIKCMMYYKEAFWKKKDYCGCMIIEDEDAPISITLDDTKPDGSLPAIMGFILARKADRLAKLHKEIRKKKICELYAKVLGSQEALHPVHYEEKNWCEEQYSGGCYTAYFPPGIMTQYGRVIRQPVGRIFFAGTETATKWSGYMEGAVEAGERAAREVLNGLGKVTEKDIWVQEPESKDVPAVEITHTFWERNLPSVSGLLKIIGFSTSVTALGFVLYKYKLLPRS
Nature of the data set: MAO activity assay (fluorometric, kynuramine substrate), MAO-A. The class given is biochemical. Here is the method: The enzyme activity assay was performed in accordance with the procedure reported by Matsumoto et al. with slight modifications. All materials used in the enzymatic assays were purchased from Sigma-Aldrich Chemicals. All pipetting protocols in the assay were performed by the Biotek Precision robotic system (BioTek Instruments, Inc., Winooski, VT, USA). To prevent the effect of light MAO enzymes, the assay was performed in 96-well black plates. […] The enzyme stock solutions were further diluted with an assay buffer to obtain final concentrations of 0.006 mg/mL MAO-A and 0.015 mg/mL MAO-B. Kynuramine was dissolved in sterilized distilled water to obtain a 25 mM stock solution and then diluted with the assay buffer to obtain final concentrations of 40 μM for the MAO-A enzyme and 20 μM for the MAO-B enzyme. […] The addition of the diluted compounds was followed by the addition of either the MAO-A or MAO-B enzymes (50 μL/well). […] Fluorescence was read from top by using BioTek-Synergy H1 multimode microplate reader at the excitation/emission wavelengths of 310 and 380 nm.
(§1) The IC50 values (Table 2) were calculated from the plots of enzyme activity against concentrations, and the regression analyses were computed in GraphPad Prism Version 6 (GraphPad Software, Inc., La Jolla, CA, USA).

For another data set, the target named is T2, human recombinant MAO-B (Homo sapiens, UniProt P27338).
T2 construct: purchased Sigma-Aldrich
T2 sequence (P27338 1-520): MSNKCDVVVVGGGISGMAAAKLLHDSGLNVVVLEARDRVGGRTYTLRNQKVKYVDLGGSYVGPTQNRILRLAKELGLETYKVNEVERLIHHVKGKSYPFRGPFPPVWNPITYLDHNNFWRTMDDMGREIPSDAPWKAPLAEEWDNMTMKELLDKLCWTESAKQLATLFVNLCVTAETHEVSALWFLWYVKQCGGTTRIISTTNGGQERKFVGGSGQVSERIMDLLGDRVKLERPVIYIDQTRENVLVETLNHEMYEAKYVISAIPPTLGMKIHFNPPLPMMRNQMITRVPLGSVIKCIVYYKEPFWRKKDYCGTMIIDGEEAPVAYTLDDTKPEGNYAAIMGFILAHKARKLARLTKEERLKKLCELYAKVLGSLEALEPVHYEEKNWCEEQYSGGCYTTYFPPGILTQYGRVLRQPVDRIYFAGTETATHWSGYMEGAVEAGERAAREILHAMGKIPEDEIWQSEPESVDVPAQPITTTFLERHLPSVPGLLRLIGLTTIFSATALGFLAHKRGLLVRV
Description: MAO activity assay (fluorometric, kynuramine substrate), MAO-B. The format is biochemical. How it is done: The enzyme activity assay was performed in accordance with the procedure reported by Matsumoto et al. with slight modifications. All materials used in the enzymatic assays were purchased from Sigma-Aldrich Chemicals. All pipetting protocols in the assay were performed by the Biotek Precision robotic system (BioTek Instruments, Inc., Winooski, VT, USA). To prevent the effect of light MAO enzymes, the assay was performed in 96-well black plates. Phosphate buffer (0.1 M, pH = 7.4) was used for the preparation of 5 mg/mL stock solutions of the human recombinant MAO-A and MAO-B enzymes. The enzyme stock solutions were further diluted with an assay buffer to obtain final concentrations of 0.006 mg/mL MAO-A and 0.015 mg/mL MAO-B. Kynuramine was dissolved in sterilized distilled water to obtain a 25 mM stock solution and then diluted with the assay buffer to obtain final concentrations of 40 μM for the MAO-A enzyme and 20 μM for the MAO-B enzyme. […] The addition of the diluted compounds was followed by the addition of either the MAO-A or MAO-B enzymes (50 μL/well). […] Fluorescence was read from top by using BioTek-Synergy H1 multimode microplate reader at the excitation/emission wavelengths of 310 and 380 nm.
as §1

The target in data set [2] is T1, MAO-A enzyme. Nature of the data set: Enzyme kinetic studies (Lineweaver-Burk plots) on MAO-A. The format is biochemical. How it is done:
The same materials were used for the MAO-inhibition assay. Compound 2j was prepared at the IC50 concentration calculated in the enzyme assay and then added to the wells (100 μL/well). The stock solution (25 mM) of kynuramine in 0.1 M phosphate buffer was diluted to final concentrations of 40, 20, 10, 5, 2.5 and 1.25 μM and then added to the wells (50 μL/well) that contained the test compound. The MAO-A enzyme was added to the plate (50 μL/well), incubated for 20 min at 37 °C, and the plate was read at excitation/emission wavelengths of 310 and 340 nm. The control measurement without the inhibitor was determined simultaneously. The results were analyzed by using Lineweaver-Burk plots in Microsoft Office Excel 2013 (Microsoft Inc., Redmond, WA, USA).
1/V: 1/rate of reaction [1/(nmoles/min/mg protein)], 1/S: 1/substrate concentration (1/µM).

Data set [3] is described as follows: Cytotoxicity test (MTT assay). The settings on record: mouse, NIH/3T3 mouse embryonic fibroblast cells (ATCC CRL-1658). In general terms: Tetrazolium dyes change colour on reduction, which living cells bring about.
Description: (§2) The MTT assay was performed as previously described [21, 22, 23, 24, 25, 26].
Data set [4] relates to NIH/3T3 mouse embryonic fibroblast cells.
Description: as §2

One may read the IC50 as the point on the concentration scale where inhibition reaches its midpoint. In general, inhibition refers to the drop in the measured response relative to a control, in per cent. As a reminder, the melting point is the temperature, or range, at which the solid turns liquid.

In turn, `CCOc1ccc([N+](=O)[O-])c(NN=Cc2ccc(O)cc2)n1` [Compound 2j, 4-[(2-(6-Ethoxy-3-nitropyridin-2-yl)hydrazono)methyl]phenol] yielded a melting point of 158 °C. On MAO-A enzyme [1], the IC50 was 6.25 µM. At MAO-A enzyme [1] (10^−3 M, ± S.D.), the inhibition at 1000 µM is 75.7 ± 1.85%. Also, on MAO-A enzyme [1] (10^−4 M, ± S.D.), the inhibition at 100 µM was determined as 69.8 ± 1.43%. At MAO-A enzyme [1] (10^−5 M), the inhibition at 10 µM came to 56.1 ± 1.27%. The inhibition at 1 µM on MAO-A enzyme [1] (10^−6 M) stood at 43.2 ± 1.06%. For the same molecule, on MAO-A enzyme [1] (10^−7 M), the inhibition at 0.1 µM turned out to be 38.8 ± 1.07%. The inhibition at 0.01 µM on MAO-A enzyme [1] (10^−8 M) came out at 32.7 ± 0.82%. At MAO-A enzyme [1] (10^−9 M), the inhibition at 0.001 µM worked out at 26.7 ± 0.96%. Moreover, on human recombinant MAO-B, the IC50 was 9.3 µM. Besides, the inhibition at 1000 µM on human recombinant MAO-B (10^−3 M, ± S.D.) was 63.8 ± 1.28%. The inhibition at 100 µM on human recombinant MAO-B (10^−4 M, ± S.D.) came to 52.7 ± 1.29%. In addition, the inhibition at 10 µM on human recombinant MAO-B (10^−5 M) turned out to be 40.2 ± 1.12%. Further, the inhibition at 1 µM at human recombinant MAO-B (10^−6 M) was determined as 31.6 ± 1.08%. The inhibition at 0.1 µM on human recombinant MAO-B (10^−7 M) worked out at 25 ± 0.95%. For the same molecule, the inhibition at 0.01 µM on human recombinant MAO-B (10^−8 M) was found to be 21.9 ± 0.82%. Besides, the inhibition at 0.001 µM on human recombinant MAO-B (10^−9 M) stood at 12.5 ± 0.51%. For the same molecule, the Vmax at MAO-A enzyme [2] (MAO-A, kynuramine substrate, nonlinear regression) is 1.903 nmol/min/mg protein. Also, the “Nature of MAO-A inhibition (Lineweaver–Burk plots)” value on MAO-A enzyme [2] (compound at IC50 concentration, kynuramine 40-1.25 μM) was “mixed type inhibitor”. In addition, the IC50 in data set [3] is more than 1000 µM.

Consider `CCOc1ccc([N+](=O)[O-])c(NN=Cc2ccccn2)n1` [Compound 2n, 6-Ethoxy-3-nitro-2[(2-(pyridine-2-yl)methylene)hydrazinyl]pyridine], for which the figures for the IC50 (at MAO-A enzyme [1]; in data set [4]) were 9.52 µM and more than 1000 µM, respectively. Besides, the “MAO-A Inhibition %” value at MAO-A enzyme [1] (10^−3 M, ± S.D.) is listed as 72.07 ± 1.56%; on MAO-A enzyme [1] (10^−4 M, ± S.D.), 56.90 ± 1.50%; at MAO-A enzyme [1] (10^−5 M) it was 42.13 ± 1.22%; on MAO-A enzyme [1] (10^−6 M), 35.11 ± 1.18%; at MAO-A enzyme [1] (10^−7 M), 24.96 ± 0.83%; at MAO-A enzyme [1] (10^−8 M), 18.02 ± 0.77%. Besides, the “MAO-A Inhibition %” value at MAO-A enzyme [1] (10^−9 M) turned out to be 10.40 ± 0.29%. Further, the “MAO-B Inhibition %” value at human recombinant MAO-B (10^−3 M, ± S.D.) stood at 42.00 ± 1.21%.

The record behind these values is article PMC6017090, “Design, Synthesis and Biological Evaluation of Novel N-Pyridyl-Hydrazone Derivatives as Potential Monoamine Oxidase (MAO) Inhibitors” (Molecules : A Journal of Synthetic Chemistry and Natural …, 2018).
